# Data from patent publication US10688194B2, “Cell penetrating peptides for intracellular delivery of molecules” (AADIGEN, LLC, priority 2012, dated 2020).
# Read-outs that look alike come from different tables or passages of the source. Ends that are not written are not given here.
# Columns and labels:
# [1] = tested on: MCF7; assay: Inhibition of cancer cell proliferation by delivered small molecule drugs; format: cell-based; conditions: Homo sapiens
# Description: (§6) Adherent HS68 fibroblasts, HeLa, PC3, MCF-7, SCK3-Her2, PBMC cell lines (from American Type Culture Collection (ATCC)) were cultured in Dulbecco's Modified Eagle's Medium supplemented with 2 mM glutamine, 1% antibiotics (streptomycin 10,000 μg/ml, penicillin, 10,000 IU/ml) and 10% (w/v) foetal calf serum (FCS), at 37° C. in a humidified atmosphere containing 5% CO2. […] 150,000 cells seeded in a 35 mm dish the day prior transfection, were grown to 60% confluence and overlaid with 200 μl of preformed complexes, incubated for 3-5 min, then 400 μl of DMEM were added. After 30 min. incubation at 37° C., 1 ml of fresh DMEM containing 16% foetal calf serum (FCS) was added in order to reach a final FCS concentration of 10%, without removing the overlay of VEPEP-3/peptide complexes. Cells were returned to the incubator for 24 hrs. […] Data reported are an average of 3 or 4 distinct experiments.
# [2] = tested on: SKB3; assay: as above; format: cell-based
# Description: as §6
# [3] = tested on: PNA (15 mer-PNA); assay: Fluorescence titration, VEPEP-3/cargo binding: PNA; conditions: cargo: 15 mer-PNA
# Description: (§1) Fluorescence experiments were performed on a PTI spectrofluorimeter at 25° C. in a NaCl 154 mM buffer. Intrinsic Trp-fluorescence of VEPEP-3 was excited at 290 nm and emission spectrum was recorded between 310 and 400 nm, with a spectral band-pass of 2 and 8 nm for excitation and emission, respectively. FITC-fluorescence of labelled-peptide was excited at 492 nm and emission recorded between 500 and 580 nm. For VEPEP-3/peptide interaction, 0.5 μM of FITC-labelled peptide was titrated by increasing concentrations of VEPEP-3. All measurements were corrected for the dilution and curve fitting were performed by using Grafit software (Erithacus).
# (§2) VEPEP-3 peptides also form stable particles with small aromatic molecules including Daunomycin, Paclitaxel, doxorubicin, porphyrin and charged molecules including nucleotide, nucleoside and peptide-analog of nucleic acids or fluorescent dyes (FIGS. 1A-1C). The dissociation constant for small hydrophobic molecule ranges between 0.05 to 2 μM, depending on the nature of the dyes and of the peptides.
# [4] = Fluorescence titration, VEPEP-3/cargo binding: small hydrophobic molecule; conditions: cargo: Doxorubicine; for Kd: read-out: Kd, SHM
# Description: as §1, §2
# [5] = tested on: Cyclic peptide (PC4); assay: Fluorescence titration, VEPEP-3/cargo binding: cyclic peptide; conditions: cargo: Cyclic peptide (PC4)
# Description: as §1
# (§3) VEPEP-3 peptide form stable complexes with peptides and proteins. The binding of cargos to VEPEP-3 was monitored by fluorescence spectroscopy using the […] intrinsic Trp groups of VEPEP-3 (3 to 5 Trp-residues) and extrinsic fluorescently labelled cargoes (using Cy3, Cy5 or FITC). Curve fitting reveal that VEPEP-3 strongly binds the different cargoes with dissociation constant in the nanomolar range (examples with VEPEP-3a, VEPEP-3C, and VEPEP-3g and three different cargoes are reported in FIGS. 1A-1C, all the data are reported in Table 1).
# [6] = tested on: HeLa and U2OS cells; assay: Toxicity of VEPEP-3 particles, MTT assay and cyclophilin mRNA level; conditions: complexed with short peptide and PNA at ratio 1/20
# Description: Toxicity of VEPEP-3/peptide or VEPEP-3/protein complexes was investigated on Hela and HS-68 cell lines. 30,000 cells seeded in 24-well plated the day prior transfection, were incubated with increasing concentrations of peptide or protein complexed with VEPEP-3 at a 20/1 molar ratio ranging from 1 to 5 μM ([…]), for 30 min prior to addition of medium to reach a final 10% concentration of FCS. Cytotoxic response was measured 12 hr or 24 hr later by monitoring the housekeeping gene cyclophilin mRNA level (Quantigen, Panomic Inc.) and by colorimetric MTT assay (Sigma, Germany), respectively. For MTT assay, cell culture medium was removed and replaced with PBS containing 2.5 mg/ml of MTT for 4 hr. Results correspond to the average of 3 separate experiments.
# [7] = tested on: Peptide (C4 and C2); assay: Fluorescence titration, VEPEP-3/cargo binding: peptide
# Description: as §1, §3
# [8] = tested on: protein (GFP & Nanobody); assay: Fluorescence titration, VEPEP-3/cargo binding: protein; conditions: cargo: protein (GFP & Nanobody)
# Description: as §1, §3
# [9] = tested on: HIV-1-LAI; format: cell-based; conditions: for anti viral activity: scrambled peptides; for IC50: -LAI; for fold higher antiviral activity than AZT: associated to the carrier peptide VEPEP-3
# Description: (§4) Adherent HS68 fibroblasts, HeLa, PC3, MCF-7, SCK3-Her2, PBMC cell lines (from American Type Culture Collection (ATCC)) were cultured in Dulbecco's Modified Eagle's Medium supplemented with 2 mM glutamine, 1% antibiotics (streptomycin 10,000 μg/ml, penicillin, 10,000 IU/ml) and 10% (w/v) foetal calf serum (FCS), at 37° C. in a humidified atmosphere containing 5% CO2. Stock solutions of VEPEP-3/peptide particles were prepared by complexing 1 μM peptide with VEPEP-3 peptides at a molar ratio of 1/20 for 30 min at 37° C. Lower concentrations of VEPEP-3-carrier/peptide (from 500 nM to […]) were obtained by serial dilution of the stock complexes in PBS, in order to preserve the same VEPEP-3-carrier/peptide ratio. 150,000 cells seeded in a 35 mm dish the day prior transfection, were grown to 60% confluence and overlaid with 200 μl of preformed complexes, incubated for 3-5 min, then 400 μl of DMEM were added. After 30 min. incubation at 37° C., 1 ml of fresh DMEM containing 16% foetal calf serum (FCS) was added in order to reach a final FCS concentration of 10%, without removing the overlay of VEPEP-3/peptide complexes. Cells were returned to the incubator for 24 hrs. For cdk4 and CDK2 derived peptides cell proliferation was monitored after 24 and 48 hrs. For peptide-targeting integrase, HIV proliferation was analyzed on activated PBMC cells after 3 and 5 days. Data reported are an average of 3 or 4 distinct experiments.
# The anti-HIV activities of the peptides (PC4D, PC6D & PC4S) and VEPEP-3/peptides were assayed according to previously described method (Roisin et al, 2004). Phytohemagglutinin-P (PHA-P)-activated peripheral blood mononuclear cells (PBMC) treated by increasing concentrations of peptide (from 100 to 0.1 nM), one hour later, were infected with hundred 50% tissue culture infectious doses (TCID50) per 100,000 cells of the HIV-1-LAI or different resistant strains (Barre-Sinoussi et al, 1983). Viruses were amplified in vitro on PHA-P-activated PBMC. Viral stock was titrated using PHA-P-activated PBMC, and 50% TCID50 were calculated using Karber's formula (Karber 1931). Samples were maintained throughout the culture, and cell supernatants were collected at day 7 post-infection and stored at −20 C. Viral replication was measured by quantifying RT activity in cell culture supernatants. In parallel, cytotoxicity of the compounds was evaluated in uninfected PHA-P-activated PBMC by colorimetric 3-(4-5 dimethylthiazol-2-yl)2,5 diphenyl tetrazolium bromite (MTT) assay on day 7 (Mossmann 1983). Experiments were performed in triplicate and repeated with another blood donor. Data analyses were performed using SoftMax® Pro 4.6 microcomputer software: percent of inhibition of RT activity or of cell viability were plotted vs. concentration and fitted with quadratic curves; 50% effective doses (ED50) and cytotoxic doses (CD50) were calculated.
# [10] = tested on: MDA_MB cells; format: cell-based
# [11] = tested on: HEK-2; format: cell-based
# Description: as §4
# (§5) A peptide C2 or C4 concentration of 200 nM was sufficient to block proliferation of Hela, MCF7, HEK-2, HS-68 and U2OS cells.
# [12] = tested on: Hela; format: cell-based
# Description: as §4, §5
# [13] = tested on: MCF7; format: cell-based
# Description: as §4, §5
# [14] = tested on: Hela; format: cell-based; remark: listed apart in the source
# Description: as §4, with “Data reported are an average of 3 or 4 distinct experiments.” left out
# [15] = tested on: Hela, MCF7, HEK-2, HS-68 and U2OS cells; assay: Cell proliferation after VEPEP-3 mediated delivery of C2/C4, several lines; format: cell-based; conditions: delivered by VEPEP-3
# Description: as §4, with “Data reported are an average of 3 or 4 distinct experiments.” left out
# [16] = drug complexed with VEPEP-3a 1/20, read-out: VEPEP-3a 1/20 IC50
# [17] = drug complexed with VEPEP-3g 1/20, read-out: VEPEP-3g 1/20 IC50
# [18] = SKB3, drug complexed with VEPEP-3a 1/20, read-out: VEPEP-3a 1/20 IC50
# [19] = SKB3, drug complexed with VEPEP-3g 1/20, read-out: VEPEP-3g 1/20 IC50
# [20] = SKB3, free drug, read-out: Free drug IC50
Compound,"Binding, PNA [3]","Binding, SHM [4]",Kd [4] [nM],"Binding, Cyclic peptide [5]",toxicity ([6]; levels up to 200 nM),toxicity ([6]; maximum concentration of 1 μM),"Binding, peptide [7]",Kd [7] [nM],"Binding, Protein [8]",Kd [8] [nM],further results
"CC(=O)O[C@H]1C(=O)[C@@]2(C)[C@H]([C@H](OC(=O)c3ccccc3)[C@]3(O)C[C@H](OC(=O)[C@H](O)[C@@H](NC(=O)c4ccccc4)c4ccccc4)C(C)=C1C3(C)C)[C@]1(OC(C)=O)CO[C@@H]1C[C@@H]2O [Taxol, taxol]",,,,,,,,,,,"IC50 [1, 16]: 200 nM; IC50 [1, 17]: 700 nM; IC50 [2, 18]: 500 nM; IC50 [2, 19]: 800 nM; IC50 [2, 20]: 9000 nM"
X1KWWERWWREWPRKRK [VEPEP-3b],Yes,Yes,500,yes,No toxicity,mild toxicity,yes,10 to 20,Yes,500,Kd [3]: 200 nM
KAETWAET (HELM PEPTIDE1{[ac].K.A.E.T.W.A.E.T.[SCCN[*:1]]}$$$$V2.0; SMILES CC(=O)N[C@@H](CCCCN)C(=O)N[C@@H](C)C(=O)N[C@@H](CCC(=O)O)C(=O)N[C@H](C(=O)N[C@@H](Cc1c[nH]c2ccccc12)C(=O)N[C@@H](C)C(=O)N[C@@H](CCC(=O)O)C(=O)N[C@H](C(=O)NCCS)[C@@H](C)O)[C@@H](C)O) [PC6S],,,,,,,,,,,anti viral activity [9]: do not show any anti viral activity
"KKQVRMAHLVLT [C4, KKQVRMAHLVLT]",,,,,,,,,,,IC50 [10]: 46 ± 14 nM; IC50 [11]: 78 ± 10 nM; IC50 [12]: 35 ± 12 nM; IC50 [13]: 58 ± 6 nM; IC50 [14]: 36 ± 21 nM; peptide concentration sufficient to block proliferation [15]: 200 nM
X1RWWEKWWTRWPRKRK [VEPEP-3c],Yes,Yes,200,yes,No toxicity,mild toxicity,yes,10 to 20,Yes,200,Kd [3]: 200 nM
"KKQVLAMEHLVT [C2, KKQVLAMEHLVT]",,,,,,,,,,,IC50 [10]: 46 ± 14 nM; IC50 [11]: 102 ± 24 nM; IC50 [12]: 37 ± 15 nM; IC50 [13]: 67 ± 15 nM; IC50 [14]: 36 ± 21 nM; peptide concentration sufficient to block proliferation [15]: 200 nM
X1RWWRLWWRSWFRLWRR [VEPEP-3e],Yes,Yes,20,yes,No toxicity,mild toxicity,yes,10 to 20,Yes,20 to 100,
"KWETWWET [PC6D, KWETWWET]",,,,,,,,,,,IC50 [9]: 0.09 ± 0.05 nM; fold higher antiviral activity than AZT [9]: 15 fold
X1LWWSRWWRSWFRLWFR [VEPEP-3g],Yes,Yes,20,yes,No toxicity,mild toxicity,yes,10 to 20,Yes,20 to 100,
TWFTEWFT (HELM PEPTIDE1{[ac].T.W.F.T.E.W.F.T.[SCCN[*:1]]}$$$$V2.0; SMILES CC(=O)N[C@H](C(=O)N[C@@H](Cc1c[nH]c2ccccc12)C(=O)N[C@@H](Cc1ccccc1)C(=O)N[C@H](C(=O)N[C@@H](CCC(=O)O)C(=O)N[C@@H](Cc1c[nH]c2ccccc12)C(=O)N[C@@H](Cc1ccccc1)C(=O)N[C@H](C(=O)NCCS)[C@@H](C)O)[C@@H](C)O)[C@@H](C)O) [PC4S],,,,,,,,,,,anti viral activity [9]: do not show any anti viral activity
"RWTEWEWW [PC4D, RWTEWEWW]",,,,,,,,,,,IC50 [9]: 0.12 ± 0.05 nM; fold higher antiviral activity than AZT [9]: 15 fold
X1RWYEKWYTEFPRRRR [VEPEP-3d],Yes,Yes,100,yes,No toxicity,mild toxicity,yes,10 to 20,Yes,100,Kd [3]: 100 nM
X1LWWRRWWSRWWPRWRR [VEPEP-3f],Yes,Yes,20,yes,No toxicity,mild toxicity,yes,10 to 20,Yes,20 to 100,
"COc1cccc2c1C(=O)c1c(O)c3c(c(O)c1C2=O)C[C@@](O)(C(=O)CO)C[C@@H]3O[C@H]1C[C@H](N)[C@H](O)[C@H](C)O1 [Doxo, doxorubicin]",,,,,,,,,,,"IC50 [1, 16]: 200 nM; IC50 ([1]; drug complexed with VEPEP-3c 1/20, read-out: VEPEP-3c 1/20 IC50): 500 nM; IC50 [1, 17]: 200 nM; IC50 ([1]; free drug, read-out: Free drug IC50): 7000 nM; IC50 [2, 18]: 300 nM; IC50 ([2]; SKB3, drug complexed with VEPEP-3c 1/20, read-out: VEPEP-3c 1/20 IC50): 400 nM; IC50 [2, 19]: 200 nM; IC50 [2, 20]: 10000 nM; fold more efficient when complexed with VEPEP-3 ([2]; complexed versus free): 25 fold; IC50 ([2]; text of b118, cell line not stated, values match SKB3 line of Table 4, read-out: IC50, proliferation of cancer cells): 10000 nM"
